The test system of the experiment is CEM cells HIV-1 protection, formazan growth assay. Put plainly: NCI AIDS Antiviral Assay. The note with it: for IC50: measured here: growth of uninfected CEM cells. The essentials:
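Screen of anti-HIV-1 activity in human CEM cells using a formazan-based growth measurement at five drug concentrations. Hits with 50% or greater protection were repeated, and confirmation required reproducible complete protection.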

SMILES strings stand for the structures. Active and inactive are the calls of the source.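 Rule for the calls: active = compounds giving half or more protection of infected cells from virus-caused growth loss, again on retest; inactive = the rest.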 Bounds are passed on as bounds.

The EC50 is the concentration needed to bring the measured effect to its halfway point. As usually defined, the IC50 is the concentration that inhibits the measured activity by half.

In the case of `COc1cc2cc(C(=O)N3CC(CCl)c4c3cc(NC(=O)OCc3ccc([N+](=O)[O-])cc3)c3ccccc43)[nH]c2c(OC)c1OC` (stereo not given), the EC50 was more than 200 µM and the IC50 was determined as 2.88 µM.

In the case of `C=CCCCn1ccc2ccccc21`, the outcome was inactive.

Take `O=C1CCC(c2ccccc2)C(O)(C(=O)O)C1` (stereo not given): the EC50 was more than 389 µM and the IC50 is more than 389 µM.

With `Cc1ccc(Oc2ccc(C(=O)c3cccc(C(=O)c4ccc(Oc5ccc(C)cc5)cc4)n3)cc2)cc1`, the EC50 was more than 3.8 µM and the half-inhibitory concentration (IC50) is more than 3.8 µM.

Take `O=[N+]([O-])c1ccc(/C=C/C=C/C=C/C=C/c2ccc(S(=O)(=O)F)cc2Cl)c(Cl)c1`: the EC50 was more than 200 µM and the IC50 came to 186 µM.

As to `CCCCC1OC2O[C@]3(C)CCC4C(C)CCC([C@H]1C)C24OO3` (stereo not given in full), the EC50 is more than 95.5 µM and the 50% inhibitory concentration (IC50) was 22.4 µM.

In the case of `N#CC(C#N)C1CN2CCC1CC2` (stereo not given), the EC50 was more than 200 µM and the concentration for half-maximal inhibition (IC50) was more than 200 µM.

Consider `CC1=NN(C(=O)Cc2ccccc2)C(=O)/C1=C\c1ccc(O)cc1`, for which the EC50 was more than 16.2 µM and the IC50 is more than 16.2 µM.

For `O[C@H]1[C@@H](O)C2(C[C@@H]1Br)OC(COCc1ccccc1)[C@@H](COCc1ccccc1)O2` (stereo not given in full), the outcome was inactive.

In the case of `CC(C)/C(Cl)=N\OC(=O)Nc1ccc(F)cc1`, the result was inactive.

As for `COc1ccc(C2=C(C#N)C(=O)OCCN2C)cc1`, the EC50 is more than 200 µM and the half-maximal inhibitory concentration (IC50) was more than 200 µM.

Consider `CC1=CC(=C(c2ccc(N)cc2)c2ccc(N)cc2)C=CC1=N`, for which the outcome was inactive.

In the case of `Cc1cc2c(C(C)C)c(O)c(O)c(C=Nc3ccc(-c4ccccc4)cc3)c2c(O)c1-c1c(C)cc2c(C(C)C)c(O)c(O)c(C=Nc3ccc(-c4ccccc4)cc3)c2c1O`, the EC50 is 1.62 µM and the half-inhibitory concentration (IC50) was more than 200 µM.

Consider `O=C(Nc1nccs1)Nc1cc(C(F)(F)F)ccc1Cl`, for which the EC50 is more than 200 µM and the half-inhibitory concentration (IC50) is more than 200 µM.

With `Cc1cc(N(CCC#N)CCC#N)ccc1/C=C(\NC(=O)/C=C/c1ccccc1)C(=O)N=[N+]=[N-]`, the outcome was inactive.

Regarding `CC(C)Sc1nc(C#N)cc2c1CCCC2`, the EC50 was more than 200 µM and the 50% inhibitory concentration (IC50) came out at 57.5 µM.

For `O=C1OC(=O)C2CC3C(CC12)C1(Cl)C(Cl)=C(Cl)C3(Cl)C1(Cl)Cl` (stereo not given), the EC50 was more than 200 µM and the concentration for half-maximal inhibition (IC50) is 6.61 µM.

Regarding `CN(Cc1ccccc1)C1(N(C)Cc2ccccc2)CC1`, the result was inactive.

For the compound `NC(CCCCP(=O)(O)O)C(=O)O` (stereo not given), the EC50 was more than 200 µM and the concentration for half-maximal inhibition (IC50) is more than 200 µM.

Turning to `O=C1Cc2c([nH]c3c(Br)cccc23)-c2ccccc2N1`, the EC50 was more than 200 µM and the IC50 was determined as 29.5 µM.

As for `O=C1c2cccc(NCCNCCO)c2C(=O)c2cccc(NCCNCCO)c21`, the outcome was inactive.

As for `CCCC/C=C(/C1OC(=O)N2CCC[C@H]2C1(C)C)[Si](C)(C)C` (stereo not given in full), the EC50 was more than 6.17 µM and the IC50 was more than 6.17 µM.

Consider `CCN(CC)C(=O)c1cccc2c(OC)ccc(OC)c12`, for which the outcome was inactive.

On to `Nc1ccccc1C(=O)CCC1C(=O)NC(=S)NC1=O`, for which the EC50 is more than 6.92 µM and the 50% inhibitory concentration (IC50) was more than 6.92 µM.

Turning to `COc1ccc([C@H]2C=[N+]([O-])O[C@H](OC3CCCC3)[C@@H]2OC(C)=O)cc1OC`, the EC50 is more than 200 µM and the IC50 turned out to be 11.2 µM.

Regarding `CCCCNC(=O)OCC(COc1ccccc1OC)OC(=O)NCCCC` (stereo not given), the EC50 is more than 66.1 µM and the half-inhibitory concentration (IC50) is more than 66.1 µM.

Regarding `CO/C(=N\N=Cc1ccccc1)c1ccncc1`, the half-maximal effective concentration (EC50) came to 15.1 µM and the concentration for half-maximal inhibition (IC50) was determined as 166 µM.

In the case of `COC(=O)N/N=C(/CCCC(=O)Nc1cccc([N+](=O)[O-])c1)C(C#N)c1ccc(CC#N)cc1` (stereo not given), the result was inactive.

In the case of `O=C(c1ccccc1)c1nnn(Cc2ccccc2Cn2nnc(C(=O)c3ccccc3)c2C(=O)c2ccccc2)c1C(=O)c1ccccc1`, the EC50 is more than 7.94 µM and the 50% inhibitory concentration (IC50) is more than 7.94 µM.

With `CCC(/C(=N/NC(=O)C[N+](C)(C)C)c1ccccc1)C1OC(=O)c2ccccc21` (stereo not given), the EC50 was more than 575 µM and the IC50 was more than 575 µM.

For the compound `COC(=O)c1cc(CN(C)C)c(O)c(CN(C)C)c1`, the EC50 is more than 200 µM and the 50% inhibitory concentration (IC50) is more than 200 µM.

In the case of `CC(C)CCCC(C)C1CCC2C3CC([N+](=O)[O-])=C4CC(O)CCC4(C)C3CCC12C` (stereo not given), the EC50 was more than 575 µM and the half-inhibitory concentration (IC50) was 251 µM.

Turning to `NC(=S)Nc1[nH]c(=S)nc2[nH]ccc12`, the concentration giving a half-maximal response (EC50) is more than 91.2 µM and the half-inhibitory concentration (IC50) is 83.2 µM.

As to `COc1ccc(/C=C/C(=O)c2cccc(C(=O)/C=C/c3ccc(OC)c(OC)c3)n2)cc1OC`, the EC50 is more than 200 µM and the IC50 was 110 µM.

On to `COc1ccc2nc3cc(Cl)ccc3c(Sc3ccc([N+](=O)[O-])cc3)c2c1`, for which the EC50 was more than 4.79 µM and the IC50 is more than 4.79 µM.

As for `CC(C)(C)C1=C(Br)C(OC(=O)C(F)(F)F)(C(C)(C)C)OP1(=O)c1ccccc1` (stereo not given), the EC50 was more than 200 µM and the IC50 came to 74.1 µM.

In the case of `O=C(N/N=C/c1ccc(Cl)cc1Cl)c1ccccc1SSc1ccccc1C(=O)N/N=C/c1ccc(Cl)cc1Cl`, the EC50 is 38.9 µM and the IC50 turned out to be 178 µM.

As for `CCN(CC)CCNC(=O)c1nn(-c2ccc(Cl)cc2)c2c1CCc1cc(OC)ccc1-2`, the EC50 was more than 91.2 µM and the half-maximal inhibitory concentration (IC50) came to 5.01 µM.

In the case of `N#CC1(C#N)NC(c2cccnc2)C(C#N)(C#N)NC1c1cccnc1` (stereo not given), the EC50 is more than 200 µM and the IC50 is more than 200 µM.

As for `Cc1nc(N)nc(N)c1N1CCN(Cc2ccccc2)CC1`, the EC50 is more than 200 µM and the concentration for half-maximal inhibition (IC50) amounted to 6.92 µM.

On to `CC1CC2C3CCC4=CC(=O)C=CC4(C)C3(F)C(O)CC2(C)C1(O)C(=O)COP(=O)(O)O` (stereo not given), for which the outcome was inactive.

Consider `O=S(Nc1ccccc1)c1cccc(Cl)c1` (stereo not given), for which the result was inactive.

Take `CCOP(=O)(OCC)C1CC(O)CN1OC(=O)C(C)(C)C` (stereo not given): the EC50 was more than 200 µM and the IC50 is more than 200 µM.

In the case of `Cc1oc2c(C)c3oc(=O)cc(C)c3cc2c1CN`, the EC50 is more than 50.1 µM and the 50% inhibitory concentration (IC50) was 7.08 µM.

Turning to `S=C(S)N(Cc1ccccc1)Cc1ccccc1`, the EC50 is more than 200 µM and the 50% inhibitory concentration (IC50) is 24.5 µM.

As to `O=C1Nc2nc(=O)nc3[nH]c(=O)nc(n23)N1`, the EC50 is more than 251 µM and the 50% inhibitory concentration (IC50) is more than 251 µM.

On to `COc1ccc(/C=C(\C#N)c2ccccc2)cc1OC`, for which the EC50 is more than 70.8 µM and the half-inhibitory concentration (IC50) is more than 70.8 µM.

As to `CC(=O)OCc1cc(OC(C)=O)c2cc3c(OC(C)=O)cccc3c(OC(C)=O)c2c1`, the EC50 is more than 200 µM and the IC50 was 28.2 µM.

`CC(C)CCC[C@@H](C)C1CCC2[C@@H]3CC=C4C[C@@H](C(=O)NCC[N+](C)(C)CCCS(=O)(=O)[O-])CC[C@]4(C)C3CC[C@@]21C` (stereo not given in full): the outcome was inactive.

For the compound `CC[C@@H](CCCC[C@@H]1CC[C@H]2CC(=O)C[C@@H]12)OC`, the EC50 is more than 200 µM and the IC50 turned out to be 186 µM.

For the compound `O=C1N[C@@H]([C@H]2CC[C@H](Cl)CN2)C(=O)N[C@H]1[C@H]1CC[C@H](Cl)CN1`, the EC50 was more than 5.89 µM and the half-maximal inhibitory concentration (IC50) turned out to be 0.0141 µM.

`O=C(Nc1nc(=S)[nH][nH]1)C(=O)C(c1cnc2ccc([N+](=O)[O-])cc2n1)[N+](=O)[O-]` (stereo not given): the EC50 was more than 447 µM and the IC50 turned out to be 79.4 µM.

Turning to `CCCCCCCCCCNCCSSCc1ccccc1`, the EC50 is more than 200 µM and the IC50 stood at 8.91 µM.

With `CCOP(=O)(OCC)Oc1ccc(Sc2ccc(OP(=O)(OCC)OCC)cc2)cc1`, the EC50 was more than 200 µM and the half-maximal inhibitory concentration (IC50) amounted to 85.1 µM.

Consider `CCCCCCC(C)CCCCCCCCCCC(=O)O` (stereo not given), for which the outcome was inactive.

In the case of `c1ccc(C2=NN3CN(N2)c2ccccc2OCCCOc2ccccc23)cc1`, the EC50 is more than 200 µM and the IC50 came out at 105 µM.

On to `O=C(CCc1nnc2s/c(=C\c3ccc(Cl)c(Cl)c3)c(=O)n12)Nc1ccc(Cl)c(Cl)c1`, for which the EC50 was more than 13.2 µM and the IC50 is more than 13.2 µM.

For the compound `COC(=O)c1ccc(OCc2ccc3oc(=O)c(-c4ccccc4)nc3c2)cc1`, the EC50 was more than 1.41 µM and the half-maximal inhibitory concentration (IC50) is more than 1.41 µM.

Consider `CCC1(CC=C(C)C)Oc2ccccc2-n2cccc2C1=O` (stereo not given), for which the result was active.

Take `c1ccc(C2OC3(CCC[C@H]4C[C@H]43)O[C@H]2c2ccccc2)cc1` (stereo not given in full): the result was inactive.

For the compound `CCOC(=O)c1nn2c(C)nnc2s1`, the outcome was inactive.

As to `Oc1ccccc1-c1nnc2sc3c(Cl)c4nn5c(-c6ccccc6O)nnc5sc4c(Cl)c3nn12`, the EC50 was more than 200 µM and the half-maximal inhibitory concentration (IC50) came out at 36.3 µM.

Take `Cn1c(=O)sc2cc(C(=S)N3CCOCC3)ccc21`: the EC50 is more than 141 µM and the half-inhibitory concentration (IC50) is 64.6 µM.

`Cc1ccc(N2C(=O)C3c4[nH]c5ccccc5c4C4CCC(C(C)(C)C)CC4C3C2=O)cc1` (stereo not given): the EC50 was more than 200 µM and the IC50 was 35.5 µM.

On to `C/C(=C\c1csc(C)n1)[C@@H]1C[C@@H]2O[C@]2(C)CCC[C@H](C)[C@H](O)[C@@H](C)C(=O)C(C)(C)[C@@H](O)CC(=O)O1` (tested in a mixture with another compound), for which the EC50 is more than 0.02 µM and the half-maximal inhibitory concentration (IC50) worked out at 0.001 µM.

On to `CC(C)Oc1nc(N2CCNCC2)nc2c1CCCC2`, for which the outcome was inactive.

Regarding `CC#COS(=O)(=O)c1ccc(C)cc1`, the EC50 is more than 251 µM and the 50% inhibitory concentration (IC50) is 110 µM.

Turning to `COc1ccc(-c2oc3cc(OC)ccc3c(=O)c2O)cc1`, the EC50 was more than 200 µM and the IC50 is more than 200 µM.

Compound `NC(=O)CCNC(=O)c1ccccc1SC(=O)NCCBr` gave an EC50 of 1.38 µM and a concentration for half-maximal inhibition (IC50) of 10 µM.

With `CN1CCN(C(=S)N2CCN(C)CC2)CC1`, the EC50 is more than 2 µM and the IC50 worked out at 1.91 µM.

As to `CCC1(CC)COP(=S)(S)OC1`, the EC50 is more than 200 µM and the concentration for half-maximal inhibition (IC50) was more than 200 µM.

Turning to `O=C(O)CCNCCCNCCC(=O)O`, the EC50 is more than 851 µM and the IC50 is more than 851 µM.

Regarding `COCCCNc1nc(N)c(C#N)c(C#N)c1C#N`, the result was inactive.

For the compound `CCCCCCN(CCCCCC)C1=CC(=O)C(=O)c2ccccc21`, the EC50 was more than 95.5 µM and the IC50 was determined as 16.6 µM.

The values above are taken from PubChem BioAssay AID179 (DTP/NCI, 2004).
